The values that follow come from ChEMBL document CHEMBL1148098, “Neosiphoniamolide A, a novel cyclodepsipeptide, with antifungal activity from the marine sponge Neosiphonia superstes” (1995).

What all share (format): functional
In experiment [1] the test system is Globisporangium rostratum. Nature of the experiment: Antifungal activity against Pythium rostratum assessed as inhibition of mycelium growth.
The subject of a further experiment is Botrytis cinerea. Nature of the experiment: Antifungal activity against Botrytis cinerea assessed as inhibition of mycelium growth.
The next experiment deals with Phytopythium vexans. As to the kind of experiment: Antifungal activity against Pythium vexans assessed as inhibition of mycelium growth.
The next experiment concerns Alternaria alternata. As to the kind of experiment: Antifungal activity against Alternaria alternata assessed as inhibition of mycelium growth.
A further experiment concerns Phytophthora cinnamomi. As to the kind of experiment: Antifungal activity against Phytophthora cinnamomi assessed as inhibition of mycelium growth.
A further experiment deals with Rhizoctonia solani. Nature of the experiment: Antifungal activity against Rhizoctonia solani assessed as inhibition of mycelium growth.
For experiment [2], the system named is Phytophthora citrophthora. Nature of the experiment: Antifungal activity against Phytophthora citrophthora assessed as inhibition of mycelium growth.
For a further experiment, the system named is Helminthosporium. As to the kind of experiment: Antifungal activity against Helminthosporium gramineum assessed as inhibition of mycelium growth.
The next experiment has as its system Parastagonospora nodorum. As to the kind of experiment: Antifungal activity against Septoria nodorum assessed as inhibition of mycelium growth.
A further experiment relates to Pyricularia oryzae. Nature of the experiment: Antifungal activity against Pyricularia oryzae assessed as inhibition of mycelium growth.
The next experiment has as its system Fusarium. Nature of the experiment: Antifungal activity against Fusarium roseum assessed as inhibition of mycelium growth.
The test system of the next experiment is Oculimacula yallundae. As to the kind of experiment: Antifungal activity against Pseudocercosporella herpotrichoides assessed as inhibition of mycelium growth.
The next experiment relates to Ustilago nuda. Nature of the experiment: Antifungal activity against Ustilago nuda assessed as inhibition of mycelium growth.

In brackets after ≈: the same amount, converted by molar mass.

As for `C/C1=C\[C@H](C)C[C@H](C)OC(=O)[C@H](C(C)C)NC(=O)[C@@H](Cc2ccc(O)c(I)c2)N(C)C(=O)CNC(=O)[C@@H](C)C1` [NEOSIPHONIAMOLIDE A], the 90% effect concentration (IC90) (in experiment [1]; in the experiment on Botrytis cinerea; in the experiment with Phytopythium vexans; in the experiment with Alternaria alternata; in the experiment on Phytophthora cinnamomi; in the experiment with Rhizoctonia solani) was greater than 5 mg/L in each case. The concentration for an effect of 90% (IC90) was greater than 5 mg/L in experiment [2]; 5 mg/L (≈ 7.63 µM) in the experiment on Helminthosporium; greater than 5 mg/L in the experiment with Parastagonospora nodorum; 5 mg/L (≈ 7.63 µM) in the experiment with Pyricularia oryzae; greater than 5 mg/L in the experiment on Fusarium; greater than 5 mg/L with Oculimacula yallundae. Also, the IC90 in the experiment on Ustilago nuda was greater than 5 mg/L.

As for `CO[C@H]1CC2=CC(=O)O[C@@H]([C@H](C)[C@@H](OC)C[C@H](OC)/C=C/[C@H](C)[C@@H](O)C[C@@H](OC)/C=C/[C@H](C)[C@@H]([C@@H](C)[C@@H](OC)[C@@H](C)CCC(=O)[C@H](C)[C@@H](C/C=C/N(C)C=O)OC)OC(=O)/C=C/C=C(/C)C1)[C@H]2O` [SPHINXOLIDE B], the IC90 (in experiment [1]; in the experiment with Botrytis cinerea; in the experiment with Phytopythium vexans; in the experiment with Alternaria alternata; in the experiment on Phytophthora cinnamomi; in the experiment on Rhizoctonia solani) was less than 2 mg/L throughout. Besides, the concentration for an effect of 90% (IC90) (in [2]; with Helminthosporium; with Parastagonospora nodorum; in the experiment with Pyricularia oryzae; with Fusarium; with Oculimacula yallundae) was less than 2 mg/L each time. Also, in the experiment on Ustilago nuda, the IC90 is less than 2 mg/L.
